Each structure is given as a SMILES string. Like-named read-outs stand apart in the source and are kept apart here.

For one experiment, the target named is T1, Src SH2 (Homo sapiens, UniProt P12931).
T1 construct: glutathione-S-transferase(GST)-Src SH2 fusion protein
Nature of the experiment: Inhibition of 125I-phosphopeptide binding to immobilized Src SH2. The settings on record: competitive 125I-phosphopeptide displacement, GST-Src SH2 fusion protein, pH 7.5, room temperature, 20 minutes. As for the experimental part: The binding affinities of compounds of the present invention to Src SH2 was determined using a competitive radiolabeled phosphopeptide displacement assay.
Binding was performed at room temperature for 20 minutes while continuously inverting the plate. […] Results are expressed as IC50 values in Table 1 below.

The target in another experiment is T2, Abl SH2 (Homo sapiens, UniProt P00519).
T2 construct: glutathione-S-transferase(GST)-Abl SH2 fusion protein
T2 sequence (P00519 127-217 limits assumed): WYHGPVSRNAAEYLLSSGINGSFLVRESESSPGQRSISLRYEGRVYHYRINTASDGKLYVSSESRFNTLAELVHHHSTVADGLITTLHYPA
Put plainly: Inhibition of 125I-phosphopeptide binding to immobilized Abl SH2. The settings on record: competitive 125I-phosphopeptide displacement, GST-Abl SH2 fusion protein, pH 7.5, room temperature, 20 minutes. On the procedure:
The binding affinities of compounds of the present invention to Abl SH2 was determined using a competitive radiolabeled phosphopeptide displacement assay. […] Binding was performed at room temperature for 20 minutes while continuously inverting the plate.

In experiment [1] the target is T3, Syp(N) SH2-GST binding to PDGF receptor kinase domain (Homo sapiens, UniProt Q06124).
T3 construct: S-X-SH2-GST (X=Src, Ab1, Grb2, p85-N, p85-C, Syp-N, and PLCy-C domains)
T3 sequence (Q06124 6-102): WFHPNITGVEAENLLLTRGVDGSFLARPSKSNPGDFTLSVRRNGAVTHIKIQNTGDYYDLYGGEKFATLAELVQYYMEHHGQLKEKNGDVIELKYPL
Put plainly: Inhibition of activated PDGF receptor binding to 35S-SH2 domains: Syp(N) SH2-GST. The note with it: 35S-Syp(N) SH2-GST, immobilized PDGF receptor kinase domain, pH 7.5, room temperature, 30 minutes.
Experimental: (§1) Inhibition of Activated PDGF Receptor Binding to ^35 S-SH2 Domains
(§2) The assay was conducted at room temperature for 30 minutes while continuously inverting the plate. The resultant SH2-GST-PDGF receptor kinase complex was separated from excess ^35 S-SH2-GST protein by vacuum filtration and the amount of bound SH2-GST was determined by scintillation counting.

Experiment [2] deals with T4, PLCγ(C) SH2-GST binding to PDGF receptor kinase domain (Homo sapiens, UniProt P19174).
T4 construct: S-X-SH2-GST (X=Src, Ab1, Grb2, p85-N, p85-C, Syp-N, and PLCy-C domains)
T4 sequence (P19174 668-756 limits assumed): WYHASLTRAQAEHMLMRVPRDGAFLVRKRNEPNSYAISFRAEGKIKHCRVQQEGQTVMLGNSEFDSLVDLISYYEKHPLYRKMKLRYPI
Put plainly: Inhibition of activated PDGF receptor binding to 35S-SH2 domains: PLCγ(C) SH2-GST. The note with it: 35S-PLCγ(C) SH2-GST, immobilized PDGF receptor kinase domain, pH 7.5, room temperature, 30 minutes.
Experimental: as §1, §2

Experiment [3] concerns the target T5, Grb2 SH2-GST binding to PDGF receptor kinase domain (Homo sapiens, UniProt P62993).
T5 construct: S-X-SH2-GST (X=Src, Ab1, Grb2, p85-N, p85-C, Syp-N, and PLCy-C domains)
Nature of the experiment: Inhibition of activated PDGF receptor binding to 35S-SH2 domains: Grb2 SH2-GST. The settings on record: 35S-Grb2 SH2-GST, immobilized PDGF receptor kinase domain, pH 7.5, room temperature, 30 minutes.
Experimental: as §1, §2

The target of experiment [4] is T6, p85(C) SH2-GST binding to PDGF receptor kinase domain (Homo sapiens, UniProt P27986).
T6 construct: S-X-SH2-GST (X=Src, Ab1, Grb2, p85-N, p85-C, Syp-N, and PLCy-C domains)
T6 sequence (P27986 624-718 limits assumed): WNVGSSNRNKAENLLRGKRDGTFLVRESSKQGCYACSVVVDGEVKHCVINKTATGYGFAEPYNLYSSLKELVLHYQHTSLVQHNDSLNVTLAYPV
Put plainly: Inhibition of activated PDGF receptor binding to 35S-SH2 domains: p85(C) SH2-GST. The settings on record: 35S-p85(C) SH2-GST, immobilized PDGF receptor kinase domain, pH 7.5, room temperature, 30 minutes.
Experimental: as §1, §2

The mark [5] stands for this setting: read-out: IC50, SRC SH2 Binding.
Setting [6] is: read-out: IC50, Abl SH2 Binding.

T1 sequence (P12931 151-248 limits assumed): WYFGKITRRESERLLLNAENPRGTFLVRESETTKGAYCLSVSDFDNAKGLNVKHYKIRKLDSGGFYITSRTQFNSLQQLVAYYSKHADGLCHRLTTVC
T5 sequence (P62993 60-152 limits assumed): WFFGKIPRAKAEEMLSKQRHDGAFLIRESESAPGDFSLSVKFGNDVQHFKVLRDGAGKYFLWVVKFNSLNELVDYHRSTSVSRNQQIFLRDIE

With `CC(=O)N[C@@H](Cc1ccc(C(F)(F)P(=O)(O)O)cc1)C(=O)NC(C)c1ccc(OCC2CCCCC2)c(C(N)=O)c1` (single isomer, unassigned) [Example 63b, [S-(R*,R*)]- or [S-(R*,S*)]-[(4-{2-Acetylamino-2-[1-(3-carbamoyl-4-cyclohexylmethoxy-phenyl)-ethylcarbamoyl]-ethyl}-phenyl)-difluoro-methyl]-phosphonic acid], the values for the IC50 at Src SH2 (setting [5]) and at Abl SH2 (setting [6]) were 29 µM and 59 µM, respectively.

With `CC(=O)N[C@@H](Cc1ccc(OP(=O)(O)O)cc1)C(=O)NC(C)c1ccc(OC(C)CC2CCCCC2)c(C(N)=O)c1` (single isomer, unassigned) [Example 64a, Phosphoric acid mono-[4-(2-acetylamino-2-{1-[3-carbamoyl-4-(2-cyclohexyl-1-methyl-ethoxy)-phenyl]-ethylcarbamoyl]-ethyl)-phenyl] ester], the IC50 came out at 0.6 µM at Src SH2 (IC50, SRC SH2 Binding) and 2.4 µM on Abl SH2 (IC50, Abl SH2 Binding).

Consider `CC(=O)N[C@@H](Cc1ccc(OP(=O)(O)O)cc1)C(=O)NC(C)c1ccc(OC(C)CC2CCCCC2)c(C(N)=O)c1` (single isomer, unassigned) [Example 64b, Phosphoric acid mono-[4-(2-acetylamino-2-{1-[3-carbamoyl-4-(2-cyclohexyl-1-methyl-ethoxy)-phenyl]-ethylcarbamoyl}-ethyl)-phenyl] ester], for which the IC50 at Src SH2 (IC50, SRC SH2 Binding) is 11 µM; on Abl SH2 (IC50, Abl SH2 Binding), 14 µM.

`CC(=O)N[C@@H](Cc1ccc(OP(=O)(O)O)cc1)C(=O)N[C@@H](CCC(=O)O)C(=O)N(C)CCCC1CCCCC1` [Example 1, [S-(R*,R*)]-4-[2-Acetylamino-3-(4-phosphonooxy-phenyl)-propionylamino]-4-[(3-cyclohexyl-propyl)-methylcarbamoyl]-butyric acid]: the IC50 in experiment [1], in experiment [2], in experiment [3] and in experiment [4] was over 100 µM each time.

Consider `CC(=O)N[C@@H](Cc1ccc(C(F)(F)P(=O)(O)O)cc1)C(=O)N[C@@H](CCC(=O)O)C(=O)N(C)CCCC1CCCCC1` [Example 5, [S-(R*,R*)]-4-{2-Acetylamino-3-[4-(difluoro-phosphonomethyl)-phenyl]-propionylamino}-4-[(3-cyclohexylpropyl)-methyl-carbamoyl]-butyric acid], for which the IC50 in experiment [1], in experiment [2], in experiment [3] and in experiment [4] was over 100 µM each time.

For `CC(=O)N[C@@H](Cc1ccc(OP(=O)(O)O)cc1)C(=O)N[C@@H](CCC(=O)O)C(=O)N1CCC[C@@H]1CCc1ccccc1` [Example 11, 4-[(S)-2-Acetylamino-3-(4-phosphonooxy-phenyl)-(S)-propionylamino]-5-oxo-5-((S)-2-phenethyl-pyrrolidin-1-yl)-pentanoic acid], the IC50 at Src SH2 (setting [5]) worked out at 2.1 µM; on Abl SH2 (setting [6]) it was 17 µM.

Take `CC(=O)N[C@@H](Cc1ccc(OP(=O)(O)O)cc1)C(=O)N[C@@H](CCC(=O)O)C(=O)N1CCC[C@@H]1CCC1CCCCC1` [Example 12, 4-[(S)-2-Acetylamino-3-(4-phosphonooxy-phenyl)-(S)-propionylamino]-5-[2-((S)-2-cyclohexyl-ethyl)-pyrrolidin-1-yl]-5-oxo-pentanoic acid]: the concentration for half-maximal inhibition (IC50) on Src SH2 (setting [5]) turned out to be 0.7 µM; on Abl SH2 (setting [6]) it was 2.5 µM.

Turning to `CC(=O)N[C@@H](Cc1ccc(OP(=O)(O)O)cc1)C(=O)N[C@@H](CCC(=O)O)C(=O)NCCCc1cccc(OCC(N)=O)c1` [Example 24, [S-(R*,R*)]-4-[2-Acetylamino-3-(4-phosphonooxy-phenyl)-propionylamino]-4-[3-(3-carbamoylmethoxy-phenyl)-propylcarbamoyl]-butyric acid], the half-maximal inhibitory concentration (IC50) at Src SH2 (IC50, SRC SH2 Binding) came to 7.2 µM; on Abl SH2 (IC50, Abl SH2 Binding), 36 µM.

Take `CCC(CC)(NC(=O)[C@H](Cc1ccc(OP(=O)(O)O)cc1)NC(C)=O)C(=O)NCCCc1ccccc1` [Example 57, (S)-Phosphoric acid mono-(4-{2-acetylamino-2-[1-ethyl-1-(3-phenyl-propylcarbamoyl)-propylcarbamoyl]-ethyl}-phenyl) ester]: the IC50 at Src SH2 (IC50, SRC SH2 Binding) worked out at 33 µM; on Abl SH2 (IC50, Abl SH2 Binding) it was 20 µM.

As to `CC(=O)N[C@@H](Cc1ccc(OP(=O)(O)O)cc1)C(=O)N[C@H](C(=O)NCCCc1ccccc1)C(C)O` (stereo partly drawn) [Example 58, [S-(R*,R*)]-Phosphoric acid mono-(4-{2-acetylamino-2-[2-hydroxy-1-(3-phenyl-propylcarbamoyl)-propylcarbamoyl]-ethyl}-phenyl) ester], the IC50 was 21 µM at Src SH2 (IC50, SRC SH2 Binding) and about 60 µM at Abl SH2 (IC50, Abl SH2 Binding).

As for `CN(C)C(=O)N[C@@H](Cc1ccc(OP(=O)(O)O)cc1)C(=O)N[C@@H](CCC(=O)O)C(=O)N(C)CCCC1CCCCC1` [Example 59, [S-(R*,R*)]-4-[(3-Cyclohexyl-propyl)-methyl-carbamoyl]-4-[2-(3,3-dimethyl-ureido)-3-(4-phosphonooxy-phenyl)-propionylaminol-butyric acid], the 50% inhibitory concentration (IC50) on Src SH2 (IC50, SRC SH2 Binding) worked out at 1.1 µM; at Abl SH2 (IC50, Abl SH2 Binding), 4.5 µM.

`CN(CCCC1CCCCC1)C(=O)[C@H](CCC(=O)O)NC(=O)[C@H](Cc1ccc(OP(=O)(O)O)cc1)NS(=O)(=O)N(C)C` [Example 60, 5-[(3-cyclohexylpropyl)methylamino]-4-[[2-[[(dimethylamino)-sulfonyl]amino]-1-oxo-3-[4-(phosphonooxy)phenyl]propyl]amino]-5-oxo-pentanoic acid]: the concentration for half-maximal inhibition (IC50) at Src SH2 (IC50, SRC SH2 Binding) stood at 1.9 µM; on Abl SH2 (IC50, Abl SH2 Binding), 9.7 µM.

As to `CN(CCCC1CCCCC1)C(=O)[C@H](CCC(=O)O)NC(=O)NCc1ccc(OP(=O)(O)O)cc1` [Example 61, (S)-4-[(3-Cyclohexyl-propyl)--methyl-carbamoyl]-4-[3-(4-phosphonooxy-benzyl)-ureido]-butyric acid], the IC50 at Src SH2 (IC50, SRC SH2 Binding) was 16 µM; on Abl SH2 (IC50, Abl SH2 Binding) it was about 100 µM.

`CN(CCCC1CCCCC1)C(=O)[C@H](CCC(=O)O)NC(=O)c1ccc(OP(=O)(O)O)cc1` [Example 62, (S)-4-[(3-Cyclohexyl-propyl)-methyl-carbamoyl]-4-(4-phosphonooxy-benzoylamino)-butyric acid]: the IC50 was found to be 8.3 µM on Src SH2 (IC50, SRC SH2 Binding) and 44 µM on Abl SH2 (IC50, Abl SH2 Binding).

Consider `CC(=O)N[C@@H](Cc1ccc(OP(=O)(O)O)cc1)C(=O)NCc1ccc(OCC2CCCCC2)c(C(=O)NO)c1` [Example 70, (S)-Phosphoric acid mono-{4-[2-acetylamino-2-(4-cyclohexylmethoxy-3-hydroxycarbamoyl-benzylcarbamoyl)-ethyl]-phenyl} ester], for which the concentration for half-maximal inhibition (IC50) at Src SH2 (IC50, SRC SH2 Binding) amounted to 24 µM; at Abl SH2 (IC50, Abl SH2 Binding), 16 µM.

In the case of `CCc1ccccc1COc1ccc(CNC(=O)[C@H](Cc2ccc(OP(=O)(O)O)cc2)NC(C)=O)cc1C(N)=O` [Example 72, (S)-Phosphoric acid mono-(4-{2-acetylamino-2-[3-carbamoyl-4-(2-ethyl-benzyloxy)-benzylcarbamoyl]-ethyl}-phenyl) ester], the IC50 at Src SH2 (IC50, SRC SH2 Binding) turned out to be 6.2 µM; on Abl SH2 (IC50, Abl SH2 Binding), 28 µM.

Consider `NC(=O)c1cc(CNC(=O)Nc2ccc(OP(=O)(O)O)cc2)ccc1OCC1CCCCC1` [Example 74, Phosphoric acid mono-{4-[3-(3-carbamoyl-4-cyclohexylmethoxy-benzyl)-ureido]-phenyl} ester], for which the IC50 on Src SH2 (IC50, SRC SH2 Binding) is 20 µM; on Abl SH2 (IC50, Abl SH2 Binding), over 100 µM.

For the compound `NC(=O)c1cc(CNC(=O)NCc2ccc(OP(=O)(O)O)cc2)ccc1OCC1CCCCC1` [Example 76, Phosphoric acid mono-{4-[3-(3-carbamoyl-4-cyclohexylmethoxy-benzyl)-ureidomethyl]-phenyl} ester], the IC50 on Src SH2 (IC50, SRC SH2 Binding) was 34 µM; at Abl SH2 (IC50, Abl SH2 Binding), over 100 µM.

The record behind these values is patent US5922697A, “Compounds, compositions and methods for inhibiting the binding of proteins containing an SH2 domain to cognate phosphorylated proteins” (Warner-Lambert Company, priority 1998, dated 1999).
